Reference: patent US20170320848A1, “COMPOUNDS FOR USE IN ANTHELMINTHIC TREATMENT” (Bayer Animal Health GMBH, priority 2014, published 2017)

Tests used:
[1] = system: Haemonchus contortus; assay: Haemonchus contortus assay (HAEMCO), larval mortality; assay type: cell-based; conditions: after 5 days
Procedure: Haemonchus Contortus—Assay (HAEMCO)
(§1) Solvent: dimethyl sulfoxide
(§2) To produce a suitable preparation, 10 mg of active compound are dissolved in 0.5 ml solvent, and the concentrate is diluted with “Ringer's solution” to the desired concentration.
Approximately 40 larvae of the red stomach worm (Haemonchus contortus) are transferred into a test tube containing compound solution.
After 5 days percentage of larval mortality are recorded. 100% efficacy means all larvae are killed, 0% efficacy means no larvae are killed.

[2] = Measurement of LogP values by HPLC on reversed phase columns (EEC directive 79/831 Annex V.A8); assay type: physicochemical; conditions: acidic range, 0.1% formic acid in water and acetonitrile as eluent; for chromatographic logP: reversed phase HPLC columns, read-out: logP (HCOOH)[a]
[3] = system: Meloidogyne incognita; assay: Meloidogyne incognita assay (MELGIN), gall formation on salad seedlings; assay type: in vivo; conditions: application rate 20 ppm, after 14 days
Procedure: Meloidogyne Incognita—Assay (MELGIN)
Solvent: 125.0 parts by weight of acetone
To produce a suitable preparation, 1 part by weight of active compound is mixed with the stated amount of solvent, and the concentrate is diluted with water to the desired concentration.
Vessels are filled with sand, a solution of the active ingredient, a suspension containing eggs and larvae of the southern root-knot nematode (Meloidogyne incognita) and salad seeds. The salad seeds germinate and the seedlings grow. Galls develop in the roots.
After 14 days the nematicidal activity is determined on the basis of the percentage of gall formation. 100% means no galls were found and 0% means the number of galls found on the roots of the treated plants was equal to that in untreated control plants.

[4] = system: Cooperia curticei; assay: Cooperia curticei assay (COOPCU), larval mortality; assay type: cell-based; conditions: Cooperia curticei, 120 h, after 5 days, read-out: activity (percentage of larval mortality); for mortality at 20 ppm: application rate 20 ppm
Procedure: Cooperia Curticei—Assay (COOPCU)
as §1, §2
Approximately 40 nematode larvae (Cooperia curticei) are transferred into a test tube containing the compound solution.
After 5 days percentage of larval mortality is recorded. 100% efficacy means all larvae are killed; 0% efficacy means no larvae are killed.

[5] = system: Nippostrongylus brasiliensis; assay: Nippostrongylus brasiliensis assay (NIPOBR), acetylcholine esterase readout; assay type: cell-based; conditions: 10 μg/ml, adult worms, read-out: activity (reduction of AChE compared to negative control)
Procedure: Nippostrongylus Brasiliensis—Assay (NIPOBR)
Adult Nippostrongylus brasiliensis were washed with saline buffer containing 100 U/ml penicillin, 0.1 mg/ml streptomycin and 2.5 μg/ml amphotericin B. Test compounds were dissolved in DMSO and worms were incubated in medium in a final concentration of 10 μg/ml (10 ppm) respectively 1 μg/ml (1 ppm). An aliquot of the medium was used to determine the acetylcholine esterase activity in comparison to a negative control. The principle of measuring acetylcholine esterase as readout for anthelmintic activity was described in Rapson et al (1986) and Rapson et al (1987).

[6] = Haemonchus contortus, 120 h, application rate 20 ppm, read-out: activity (percentage of larval mortality)

Row | Structure (SMILES) | mortality at 20 ppm [1, 6] [%] | chromatographic logP [2] | mortality at 20 ppm [4] [%] | also measured
1 | O=C(NCC(F)(F)c1ccc(-c2ccc(F)cc2)cc1Cl)c1cccnc1C(F)(F)F [Example 9] | 100 | 3.68 | 100 | nematicidal activity (percentage of gall formation) [3]: 100%
2 | N#Cc1ccc(-c2ccc(C(F)(F)CNC(=O)c3ccccc3C(F)(F)F)c(Cl)c2)cc1C(F)(F)F [Example 97] | – | – | – | activity (percentage of larval mortality) ([1]; application rate 20 ppm): 80%; logP (HCOOH)[a] [2]: 4.12
3 | O=C(NCC(F)(F)c1ccc(-c2ccc(Cl)cc2)cc1C(F)(F)F)c1ccccc1C(F)(F)F [Example 13] | 90 | – | 100 | inhibition at 10 µg/mL [5]: ≥ 75%
4 | O=C(NCC(F)(F)c1ccc(-c2ccc(F)cc2)cc1F)c1ccccc1C(F)(F)F [Example 7, N-(2-(3,4′-Difluoro-[1,1′-biphenyl]-4-yl)-2,2-difluoroethyl)-2-(trifluoromethyl)benzamide] | 90 | – | 100 | inhibition at 10 µg/mL [5]: ≥ 75%
5 | O=C(NCC(F)(F)c1ccc(-c2ccc(OC(F)(F)F)cc2)cc1C(F)(F)F)c1ccccc1C(F)(F)F [Example 15] | 90 | – | 100 | –
6 | O=C(NCC(F)(F)c1ccc(-c2ccc(F)cc2)cc1F)c1cccnc1C(F)(F)F [Example 19] | 100 | – | 100 | –
7 | CSc1ccc(-c2ccc(C(F)(F)CNC(=O)c3ccccc3C(F)(F)F)c(Cl)c2)cc1 [Example 26] | 100 | 4.43 | 100 | –
8 | O=C(NCC(F)(F)c1ccc(-c2ccc(F)cc2)cc1C(F)(F)F)c1ccccc1C(F)(F)F [Example 12, N-(2,2-Difluoro-2-(4′-fluoro-3-(trifluoromethyl)-[1,1′-biphenyl]-4-yl)ethyl)-2-(trifluoromethyl)benzamide] | 100 | – | 100 | inhibition at 10 µg/mL [5]: ≥ 75%
9 | O=C(NCC(F)(F)c1ccc(-c2ccc(Cl)cc2)cc1Cl)c1cccnc1C(F)(F)F [Example 4] | – | 4.14 | – | mortality at 4 ppm ([1]; Haemonchus contortus, 120 h, application rate 4 ppm, read-out: activity (percentage of larval mortality)): 90%; mortality at 4 ppm ([4]; application rate 4 ppm): 100%
10 | O=C(NCC(F)(F)c1ccc(-c2ccc(Cl)cc2)cc1F)c1cccnc1C(F)(F)F [Example 20] | 90 | – | 100 | –
11 | O=C(NCC(F)(F)c1c(F)cc(-c2ccc(F)cc2)cc1F)c1ccccc1C(F)(F)F [Example 16] | 100 | 3.95 | 100 | –
12 | O=C(NCC(F)(F)c1ccc(-c2ccc(Cl)cc2)cc1C(F)(F)F)c1cccnc1C(F)(F)F [Example 18] | 100 | – | 100 | –
13 | O=C(NCC(F)(F)c1ccc(-c2c(F)cccc2F)cc1Cl)c1ccccc1C(F)(F)F [Example 31] | 80 | 3.99 | 100 | –
14 | O=C(NCC(F)(F)c1ccc(-c2ccc(OC(F)(F)F)cc2)cc1F)c1ccccc1C(F)(F)F [Example 14] | 90 | – | 100 | –
15 | COc1cc(-c2ccc(C(F)(F)CNC(=O)c3ccccc3C(F)(F)F)c(Cl)c2)ccc1F [Example 34] | 100 | 4.09 | 100 | –
16 | Cc1cc(-c2cccc(F)c2F)ccc1C(F)(F)CNC(=O)c1ccccc1C(F)(F)F [Example 127] | – | – | – | logP (HCOOH)[a] [2]: 4.1; nematicidal activity (percentage of gall formation) [3]: 90%
17 | O=C(NCC(F)(F)c1ccc(-c2cc(F)c(F)c(F)c2)cc1Cl)c1c(F)cccc1F [Example 117] | – | – | – | logP (HCOOH)[a] [2]: 4.05; nematicidal activity (percentage of gall formation) [3]: 100%
18 | Cc1cc(-c2ccc(SC(F)(F)F)cc2)ccc1C(F)(F)CNC(=O)c1ccccc1C(F)(F)F [Example 50] | – | – | – | logP (HCOOH)[a] [2]: 5.08; nematicidal activity (percentage of gall formation) [3]: 100%
19 | O=C(NCC(F)(F)c1ccc(-c2ccc(F)cc2)cc1Cl)c1nccnc1C(F)(F)F [Example 61] | – | – | – | logP (HCOOH)[a] [2]: 3.85; nematicidal activity (percentage of gall formation) [3]: 100%
